The record followed here is patent US20210205382A1, “METHODS AND COMPOSITIONS FOR USING METAL ELEMENTS IN AAV GENE THERAPY” (priority 2018, published 2021).

In data set [1] the test system is HeLa cells infected with scAAV2-EGFP. The data set can be described thus: Transduction efficiency of scAAV2-EGFP in HeLa cells (EGFP expression, fluorescent microscopy). The note with it: for concentration giving maximal increase in transgene expression / maximal increase in transgene expression compared to when no essential metal element was added: HeLa, scAAV2-EGFP, 200 vgs per cell, 48 hours after infection; for maximal increase in transgene expression compared to when no essential metal element was added: at the concentration of maximal increase; for target blood concentration determined from the concentration of greatest improvement of AAV transduction efficiency in vitro: based on FIGS. 1H, 1F, 1C, 1I; for improvement of AAV transduction efficiency: cells infected with rAAV, metal alone or in combination (FIG. 2B).
Procedure: In an initial set of experiments, HeLa cells were infected with self-complementary AAV2 (scAAV2) comprising nucleic acid encoding EGFP (scAAV2-EGFP) at a multiplicity of infection of 200 viral genomes (vgs) per cell. Thereafter, various essential metal elements were added to the cell cultures at different concentrations. Transduction efficiency was measured 48 hours after infection, by evaluating the expression of EGFP using fluorescent microscopy. Images were analyzed using ImageJ software.

A further data set relates to HeLa cells. Nature of the data set: Zn2+-induced cytotoxicity in HeLa cells. The format is cell-based.
Data set [2] has as its system Huh7 cells. The data set can be described thus: Transgene expression of rAAV2-mCherry in Huh7 cells with zinc. The format is cell-based, human. The settings on record: 15 μg/ml of Zn2+. An excerpt:
(§1) Therefore, targeting ZIP14-deficient HCC tumors would be ideal for Zn2+ infusions due to their tendency to prevent zinc uptake, and therefore, increase the level of environmental Zn2+. To test this hypothesis, Huh7 cells were either mock-transfected, or transfected with a recombinant plasmid containing a CMV promoter-driven ZIP14-EGFP fusion protein, and were transduced with scAAV2-mCherry vectors under identical conditions.

The subject of data set [3] is Huh7 cells. Nature of the data set: Zn2+-induced cytotoxicity in Huh7 cells (mock-transfected). The format is cell-based, human.
Data set [4] relates to ZIP14 over-expressing Huh7 cells. The data set can be described thus: Zn2+ effects in Huh7 cells over-expressing ZIP14, transduced with scAAV2-mCherry. The format is cell-based, human.
From the text: The effect of metal ion (e.g., zinc) on the transduction efficiency of AAV vectors may be due to free floating zinc, because the increase in transduction occurs when the cell has taken up zinc to the point where extracellular accumulation occurs. […] ZIP14 is a metal ion transporter that primarily transports zinc into cells.
as §1

Data set [5] deals with Huh7 cells infected with scAAV3-EGFP. The data set can be described thus: Percentage of Huh7 cells transduced by scAAV3-EGFP (flow cytometry). In kind it is cell-based, human. The settings on record: different concentrations, flow cytometry (FIG. 4). The procedure: Huh7 cells were infected with self-complementary AAV3 (scAAV3) comprising nucleic acid encoding EGFP (scAAV3-EGFP). Thereafter, zinc chloride was added to the cell cultures at different concentrations. Transduction efficiency was measured by evaluating the expression of EGFP using flow cytometry.
(In general: A flow cytometer gives signals particle by particle.)

A further data set relates to CCK8 cells. Nature of the data set: AAV2-mCherry transduction efficiency versus cell viability with varying zinc. The format is cell-based. The note with it: varying concentrations of zinc (FIG. 5). An excerpt:
FIG. 5 provides an overlap of AAV transduction efficiency data and cell viability data from experiments in which CCK8 cells were transduced with AAV2 comprising mCherry encoding nucleic acid and treated with varying concentrations of zinc. […] FIGS. 6, 7, and 8 show similar data for HEK293 cells, HeLa cells, and HepG2 cells.

Another data set has as its system HepG2 cells. The data set can be described thus: Factor IX expression in HepG2 cells infected with AAV3-Factor IX (Western blot). In kind it is cell-based. The settings on record: rAAV3-Factor IX, 20 μg/ml, 3h post infection. The procedure: HepG2 cells, which express factor IX to a lower degree compared to other cell types, were cultured. They were then either infected with rAAV3 particles carrying nucleic acid encoding Factor IX, or infected with rAAV3 particles carrying nucleic acid encoding Factor IX and treated with 20 μg/ml of ZnCl2. When level of Factor IX expressed in the cells was measured using Western blot analysis after the cells there harvest 3h post infection.
For orientation: In western blotting, separated proteins are transferred to a membrane and probed.

As to `[Cl][Ni][Cl]` [nickel chloride], in data set [1], the “concentration giving maximal increase in transgene expression” value (shortened to “concentration giving maximal increase”) is 20 µg/mL, the “maximal increase in transgene expression compared to when no essential metal element was added” value is listed as ~3 fold, the “target blood concentration determined from the concentration of greatest improvement of AAV transduction efficiency in vitro” value (from here on “target blood concentration determined”) worked out at 200 µg/mL and the “improvement of AAV transduction efficiency” value was ~2 fold.
Turning to `[Cl][Co][Cl]` [cobalt chloride], in data set [1], the “concentration giving maximal increase” value came out at 25 µg/mL, the “maximal increase in transgene expression compared to when no essential metal element was added” value is ~2 fold, the “target blood concentration determined” value lay in the range of 20 to 30 µg/mL and the “improvement of AAV transduction efficiency” value is ~2 fold.
Regarding `[Cl-].[Cl-].[Mg+2]` [magnesium chloride], in data set [1], the “concentration giving maximal increase” value is reported as “approximately 100 μg/ml”, the “maximal increase in transgene expression compared to when no essential metal element was added” value is ~2 fold and the “target blood concentration determined” value was 100 µg/mL.
On to `[Cl-].[Cl-].[Zn+2]` [zinc chloride], for which the “concentration inducing significant cytotoxicity” value in the data set on HeLa cells was “exceeding 30 μg/ml”. The “increase in the transgene expression” value with Huh7 cells [2] is recorded as ~7 fold. In addition, the “concentrations found to be cytotoxic” value with Huh7 cells [3] (Huh7 cells) is reported as “exceeding 20 μg/ml”. In addition, the “Zn2+-induced cytotoxicity” value in the data set on Huh7 cells [3] (mock-treated Huh7 cells, final concentration of 20 μg/ml) is recorded as “not mock-treated Huh7 cells, evaded Zn2+-induced cytotoxicity”. The “zinc-induced improvement of rAAV transduction efficiency” value in data set [4] (Huh7 cells transfected with a ZIP14 gene) is given as “reduction in the zinc-induced improvement of rAAV transduction efficiency”. For the same molecule, the “Zn2+-induced cytotoxicity” value in data set [4] (ZIP14 over-expressing Huh7 cells, final concentration of 20 μg/ml) is on record as “evaded Zn2+-induced cytotoxicity”. Also, the “percentage of cells transduced by the scAAV3-EGFP vector” value in data set [5] is recorded as “increases with increasing concentration of zinc chloride”. The “rAAV transduction efficiency versus cell viability” value with CCK8 cells is “drop in rAAV transduction efficiency correlates with cell viability”. In addition, in the data set on HepG2 cells, the “level of Factor IX expression compared to cells not treated with metal elements” value is “greater level of Factor IX expression”. The “increase in transgene expression” value in data set [1] (HeLa cells, final concentration of 30 μg/ml) is recorded as ~8 fold. In addition, in data set [1], the “concentration giving maximal increase” value stood at 30 µg/mL, the “maximal increase in transgene expression compared to when no essential metal element was added” value is given as ~8 fold, the “target blood concentration determined” value was 30 µg/mL and the “improvement of AAV transduction efficiency” value is listed as ~8 fold.
